In patent EP0610377B1, “TRI-SUBSTITUTED TETRAHYDROFURAN ANTIFUNGALS” (SCHERING CORPORATION, priority 1991, dated 1993):

Columns and labels:
C. albicans C-43 = assay: Candida systemic model in CF1 mice infected IV with C. albicans C-43, oral treatment; type: in vivo; conditions: for %SURVIVAL: day 4 post-infection; for CFUs (GM): day 4, geometric mean of the logarithms of CFU remaining in the kidneys (dead mice counted as 10^9)
Procedure: The compounds of Examples 23-26 and itraconazole, fluconazole, and saperconazole were tested for in vivo oral antifungal activity in a Candida systemic model using CF1 male mice , average weight 20 g, Harlan Sprague Dawley, Inc., Indianapolis, Ind. infected by IV injection into the tail vein of C. albicans C-43 (5 million CFUs). […] Oral efficacy was measured after four (4) days by percent survival and by the number of organisms remaining in the kidneys i.e., the Colony Forming Units (CFUs). The mice were sacrificed and the kidneys of individual mice were homogenized in sterile saline, diluted and spread onto Mycosel agar. Colony counts were determined after 48 hours at 37°C. For calculation of geometric means, mice that died during the experiment were considered to have 10^9 CFUs/kidneys (based on numerous previous experiments).

Candida = Candida vaginal infection in a hamster model; type: in vivo; conditions: result in words
[1] = 10 MPK PO in PEG-200, 1 a day x 4 days
[2] = 25 MPK PO in PEG-200, 1 a day x 4 days
[3] = 50 MPK PO in PEG-200, 1 a day x 4 days
[4] = 1 MPK PO in PEG-200, 1 a day x 4 days

Row | SMILES | %SURVIVAL (C. albicans C-43; [1]) [%] | CFUs (GM) (C. albicans C-43; 10 MPK PO in PEG-200) | %SURVIVAL (C. albicans C-43; [2]) [%] | CFUs (GM) (C. albicans C-43; 25 MPK PO in PEG-200) | %SURVIVAL (C. albicans C-43; [3]) [%] | CFUs (GM) (C. albicans C-43; 50 MPK PO in PEG-200) | %SURVIVAL (C. albicans C-43; [4]) [%] | CFUs (GM) (C. albicans C-43; 1 MPK PO in PEG-200) | oral activity in the Candida systemic model compared with itraconazole (C. albicans C-43; doses of 50, 25 and 10 mpk, each dissolved in PEG-200, result in words) | activity against a Candida vaginal infection compared with itraconazole and saperconazole (Candida)
1 | CCC(C)n1ncn(-c2ccc(N3CCN(c4ccc(OCC5COC(Cn6cncn6)(c6ccc(Cl)cc6Cl)O5)cc4)CC3)cc2)c1=O (stereo not drawn) [Itraconazole, reference compound] | 0 | 9.00 | 0 | 9.00 | 60 | 6.68 |  |  |  | 
2 | CC[C@@H](C)n1ncn(-c2ccc(N3CCN(c4ccc(OC[C@@H]5CO[C@@](Cn6cncn6)(c6ccc(F)cc6F)C5)cc4)CC3)cc2)c1=O [Example 23] | 50 | 6.78 | 80 | 5.90 | 90 | 5.62 | 10 | 8.57 |  | 
3 | CC[C@H](C)n1ncn(-c2ccc(N3CCN(c4ccc(OC[C@@H]5CO[C@@](Cn6cncn6)(c6ccc(F)cc6F)C5)cc4)CC3)cc2)c1=O [Example 24, (-)-[(5R)-cis]-4-[4-[4-[4-[[5-(2,4-Difluorophenyl)-5-(1H-1,2,4-triazol-1-ylmethyl)tetrahydrofuran-3-yl]methoxy]phenyl]-1-piperazinyl]phenyl]-2,4-dihydro-2-[(1S)-(1-methylpropyl)]-3H-1,2,4-triazol-3-one] | 40 | 7.42 | 100 | 5.14 | 100 | 4.99 | 30 | 7.88 | more active orally | more active
